As a reminder, the EC50 is the concentration at which the effect is half-maximal. A high value points to weaker potency. In general, IC50 refers to the concentration that inhibits the measured activity by half.

The target of assay [1] is T1, SFRP-1 (Homo sapiens, UniProt Q8N474).
T1 sequence (Q8N474 32-314): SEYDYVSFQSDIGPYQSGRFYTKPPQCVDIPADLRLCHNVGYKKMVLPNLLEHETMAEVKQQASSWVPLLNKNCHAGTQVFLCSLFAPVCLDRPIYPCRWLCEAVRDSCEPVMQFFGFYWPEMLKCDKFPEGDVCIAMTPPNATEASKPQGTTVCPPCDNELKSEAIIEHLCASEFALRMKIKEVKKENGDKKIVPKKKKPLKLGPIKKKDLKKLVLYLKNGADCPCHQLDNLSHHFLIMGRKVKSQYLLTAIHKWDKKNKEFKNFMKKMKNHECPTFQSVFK
The assay can be described thus: Cell-based assay for in vitro measurement of SFRP-1/SARP2 antagonist activity (U2OS cells co-transfected with 16x TCF-tk-Luciferase reporter, Wnt and hSFRP-1).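 For all read-outs here: U2OS cells co-transfected with a TCF-tk luciferase reporter, a Wnt vector, hSFRP-1 or empty vector and CMV-βgal, luciferase luminescence read in cell lysates alongside βgal activity.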 The following applies: for fold induction at 10 µM: U2OS, read-out: Fold Induction with SFRP-1, U2OS cells, single dose 10 μM, luciferase reporter, fold induction over SFRP-1 control. In general terms: A reporter such as luciferase makes a cellular process visible.

Assay [2] has as its target T1, SFRP-1. Nature of the assay: Fluorescence polarization binding assay (competitive displacement of a probe compound from SFRP-1).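 Note: test compound competes with a fluorescent probe held by SFRP-1, seen as a drop in probe anisotropy after incubation in darkness, with anisotropy as function of rising compound dose.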 The following applies: fluorescence anisotropy, 45 nM SFRP-1, 20 nM probe. For orientation: In fluorescence polarisation assays a small probe gives low polarisation when free and higher when bound to something large.

Regarding `O=C(c1ccc(F)cc1Cl)N1CCC(NS(=O)(=O)c2cc(S(=O)(=O)c3ccccc3)ccc2C(F)(F)F)CC1` [Example 716, N-[1-(2-chloro-4-fluorobenzoyl)piperidin-4-yl]-5-(phenylsulfonyl)-2-(trifluoromethyl)benzenesulfonamide], on SFRP-1 [1], the EC50 was 1760 nM and the fold induction at 10 µM was found to be 4.2. For the same compound, the IC50 on SFRP-1 [2] was determined as 300 nM.

On to `O=C(c1c(F)cc(F)cc1F)N1CCC(NS(=O)(=O)c2cc(S(=O)(=O)c3ccccc3)ccc2C(F)(F)F)CC1` [Example 717, 5-(phenylsulfonyl)-N-[1-(2,4,6-trifluorobenzoyl)piperidin-4-yl]-2-(trifluoromethyl)benzenesulfonamide], for which, on SFRP-1 [1], a half-maximal effect (EC50) was put at 1290 nM and the fold induction at 10 µM worked out at 5.3. On SFRP-1 [2], the IC50 came to 170 nM.

For `CC(C)(C)c1ccc(C(=O)N2CCC(NS(=O)(=O)c3cc(S(=O)(=O)c4ccccc4)ccc3C(F)(F)F)CC2)cc1` [Example 718, N-[1-(4-tert-butylbenzoyl)piperidin-4-yl]-5-(phenylsulfonyl)-2-(trifluoromethyl)benzenesulfonamide], on SFRP-1 [1], the EC50 was 214 nM and the fold induction at 10 µM amounted to 6.7. The half-inhibitory concentration (IC50) at SFRP-1 [2] is 400 nM.

As for `CC(=O)Nc1ccc(C(=O)N2CCC(NS(=O)(=O)c3cc(S(=O)(=O)c4ccccc4)ccc3C(F)(F)F)CC2)cc1` [Example 719, N-(4-{[4-({[5-(phenylsulfonyl)-2-(trifluoromethyl)phenyl]sulfonyl}amino)piperidin-1-yl]carbonyl}phenyl)acetamide], on SFRP-1 [1], the EC50 was 441 nM and the fold induction at 10 µM stood at 2.1. This compound came in with an IC50 on SFRP-1 [2] of 200 nM.

Turning to `O=S(=O)(N[C@H](CO)Cc1ccccc1)c1cc(S(=O)(=O)c2ccccc2)ccc1C(F)(F)F` [Example 720, N-[(1S)-1-benzyl-2-hydroxyethyl]-5-(phenylsulfonyl)-2-(trifluoromethyl)benzenesulfonamide], on SFRP-1 [1], the fold induction at 10 µM is 2. In addition, the half-inhibitory concentration (IC50) on SFRP-1 [2] is 6000 nM.

For `O=S(=O)(N[C@H](CO)Cc1c[nH]c2ccccc12)c1cc(S(=O)(=O)c2ccccc2)ccc1C(F)(F)F` [Example 721, N-[(1S)-2-hydroxy-1-(1H-indol-3-ylmethyl)ethyl]-5-(phenylsulfonyl)-2-(trifluoromethyl)benzenesulfonamide], the fold induction at 10 µM on SFRP-1 [1] amounted to 2.7. The half-inhibitory concentration (IC50) at SFRP-1 [2] worked out at 2000 nM.

Consider `O=S(=O)(NCCc1ccc[n+]([O-])c1)c1cc(S(=O)(=O)c2ccccc2)ccc1C(F)(F)F` [Example 723, N-[2-(1-oxidopyridin-3-yl)ethyl]-5-(phenylsulfonyl)-2-(trifluoromethyl)benzenesulfonamide], for which, at SFRP-1 [1], the midpoint of the response, the EC50, lay at 790 nM and the fold induction at 10 µM stood at 4.5. The IC50 at SFRP-1 [2] came out at 200 nM.

For `C[C@@H](CO)NS(=O)(=O)c1cc(S(=O)(=O)c2ccccc2)ccc1C(F)(F)F` [Example 725, N-[(1S)-2-hydroxy-1-methylethyl]-5-(phenylsulfonyl)-2-(trifluoromethyl)benzenesulfonamide], on SFRP-1 [1], the EC50 amounted to 1260 nM and the fold induction at 10 µM came to 3.1. Also, at SFRP-1 [2], the IC50 stood at 500 nM.

Turning to `C[C@H](CO)NS(=O)(=O)c1cc(S(=O)(=O)c2ccccc2)ccc1C(F)(F)F` [Example 726, N-[(1R)-2-hydroxy-1-methylethyl]-5-(phenylsulfonyl)-2-(trifluoromethyl)benzenesulfonamide], at SFRP-1 [1], the fold induction at 10 µM was 3. The same compound had an IC50 on SFRP-1 [2] of 800 nM.

For `CC(C)c1ccc(S(=O)(=O)c2ccc(F)cc2)cc1S(=O)(=O)NCC(O)c1ccccn1` (centres unmarked) [Example 727, 5-[(4-fluorophenyl)sulfonyl]-N-(2-hydroxy-2-pyridin-2-ylethyl)-2-isopropylbenzenesulfonamide], the fold induction at 10 µM on SFRP-1 [1] amounted to 3.2. The compound also showed an IC50 at SFRP-1 [2] of 10000 nM.

On to `CC(C)c1ccc(S(=O)(=O)c2ccccc2)cc1S(=O)(=O)NCC(O)c1ccccn1` (centres unmarked) [Example 728, N-(2-hydroxy-2-pyridin-2-ylethyl)-2-isopropyl-5-(phenylsulfonyl)benzene-sulfonamide], for which the fold induction at 10 µM at SFRP-1 [1] worked out at 3.1. Also, the IC50 on SFRP-1 [2] was 4000 nM.

For the compound `Cc1cc(C)c(S(=O)(=O)c2ccccc2)cc1S(=O)(=O)NCC(O)c1ccccn1` (centres unmarked) [Example 729, N-(2-hydroxy-2-pyridin-2-ylethyl)-2,4-dimethyl-5-(phenylsulfonyl)benzenesulfonamide], the fold induction at 10 µM on SFRP-1 [1] came out at 1.7. Also, the IC50 on SFRP-1 [2] was 15000 nM.

`CC(C)c1ccc(S(=O)(=O)c2ccc(F)cc2)cc1S(=O)(=O)NCC(O)c1cccnc1` (centres unmarked) [Example 731, 5-[(4-fluorophenyl)sulfonyl]-N-(2-hydroxy-2-pyridin-3-ylethyl)-2-isopropylbenzenesulfonamide]: the fold induction at 10 µM at SFRP-1 [1] worked out at 3.3. Moreover, at SFRP-1 [2], the IC50 stood at 1900 nM.

`CC(C)c1ccc(S(=O)(=O)c2ccc(F)cc2)cc1S(=O)(=O)NCC(O)c1ccccc1` (centres unmarked) [Example 732, 5-[(4-fluorophenyl)sulfonyl]-N-(2-hydroxy-2-phenylethyl)-2-isopropylbenzenesulfonamide]: the fold induction at 10 µM on SFRP-1 [1] stood at 4.2. Moreover, the IC50 at SFRP-1 [2] was determined as 1100 nM.

With `CC(CO)NS(=O)(=O)c1cc(S(=O)(=O)c2ccc(F)cc2)ccc1C(C)C` (centres unmarked) [Example 733, 5-[(4-fluorophenyl)sulfonyl]-N-(2-hydroxy-1-methylethyl)-2-isopropylbenzenesulfonamide], the fold induction at 10 µM at SFRP-1 [1] was determined as 2.5. In addition, the IC50 at SFRP-1 [2] was found to be 10000 nM.

For `CC(C)c1ccc(S(=O)(=O)c2ccccc2)cc1S(=O)(=O)NCC(O)c1cccnc1` (centres unmarked) [Example 735, N-(2-hydroxy-2-pyridin-3-ylethyl)-2-isopropyl-5-(phenylsulfonyl)benzenesulfonamide], at SFRP-1 [1], the fold induction at 10 µM worked out at 4.1. In addition, the IC50 on SFRP-1 [2] amounted to 900 nM.

As for `CC(C)c1ccc(S(=O)(=O)c2ccccc2)cc1S(=O)(=O)NCC(O)c1ccccc1` (centres unmarked) [Example 736, N-(2-hydroxy-2-phenylethyl)-2-isopropyl-5-(phenylsulfonyl)benzenesulfonamide], on SFRP-1 [1], the EC50 came out at 1760 nM and the fold induction at 10 µM was found to be 5. On SFRP-1 [2], this compound gave an IC50 of 400 nM.

With `CCC(O)CNS(=O)(=O)c1cc(S(=O)(=O)c2ccc(F)cc2)ccc1C(C)C` (centres unmarked) [Example 738, 5-[(4-fluorophenyl)sulfonyl]-N-(2-hydroxybutyl)-2-isopropylbenzenesulfonamide], the fold induction at 10 µM at SFRP-1 [1] was 2.9. The compound further had an IC50 on SFRP-1 [2] of 7000 nM.

For the compound `O=S(=O)(NCCn1ccnc1)c1cc(S(=O)(=O)c2ccccc2)ccc1C(F)(F)F` [Example 739, N-[2-(1H-Imidazol-1-yl)ethyl]-5-(phenylsulfonyl)-2-(trifluoromethyl)benzenesulfonamide], at SFRP-1 [1], it took 720 nM to reach a half-maximal effect (EC50) and the fold induction at 10 µM came out at 5.1. Besides, the IC50 on SFRP-1 [2] was found to be 180 nM.

With `Cc1ccc(S(=O)(=O)c2ccc(F)cc2)cc1S(=O)(=O)NCC(O)c1cccnc1` (centres unmarked) [Example 740, 5-[(4-fluorophenyl)sulfonyl]-N-(2-hydroxy-2-pyridin-3-ylethyl)-2-methylbenzenesulfonamide], at SFRP-1 [1], the fold induction at 10 µM is 3.3. Besides, the IC50 at SFRP-1 [2] turned out to be 6000 nM.

Turning to `O=S(=O)(NCC(O)c1cccnc1)c1cc(S(=O)(=O)c2ccccc2)ccc1C(F)(F)F` (centres unmarked) [Example 741, N-(2-hydroxy-2-pyridin-3-ylethyl)-5-(phenylsulfonyl)-2-(trifluoromethyl)benzenesulfonamide], at SFRP-1 [1], the response was half-maximal at 1000 nM (EC50) and the fold induction at 10 µM worked out at 4.8. The compound further registered an IC50 at SFRP-1 [2] of 300 nM.

For the compound `CC(C)(C)OC(=O)NCCNS(=O)(=O)c1cc(S(=O)(=O)c2ccccc2)ccc1C(F)(F)F` [Example 742, tert-Butyl[2-({[5-(phenylsulfonyl)-2-(trifluoromethyl)phenyl]sulfonyl}amino)ethyl]carbamate], on SFRP-1 [1], the fold induction at 10 µM is 2.4. Further, the IC50 at SFRP-1 [2] amounted to 280 nM.

Consider `O=S(=O)(NC1CCOCC1)c1cc(S(=O)(=O)c2cccc(O)c2)ccc1C(F)(F)F` [Example 744, 5-[(3-hydroxyphenyl)sulfonyl]-N-(tetrahydro-2H-pyran-4-yl)-2-(trifluoromethyl)benzenesulfonamide], for which, at SFRP-1 [1], the EC50 came out at 852 nM and the fold induction at 10 µM stood at 3.1. The IC50 at SFRP-1 [2] was determined as 200 nM.

On to `COc1cccc(S(=O)(=O)c2ccc(C(F)(F)F)c(S(=O)(=O)NCCC#N)c2)c1` [Example 745, N-(2-cyanoethyl)-5-[(3-methoxyphenyl)sulfonyl]-2-(trifluoromethyl)benzenesulfonamide], for which, at SFRP-1 [1], the response was half-maximal at 631 nM (EC50) and the fold induction at 10 µM was determined as 4.5. Also, the IC50 at SFRP-1 [2] was 400 nM.

As to `COc1cccc(S(=O)(=O)c2ccc(C(F)(F)F)c(S(=O)(=O)NC3CCN(C(=O)c4ccc(C(C)(C)C)cc4)CC3)c2)c1` [Example 746, N-[1-(4-tert-butylbenzoyl)piperidin-4-yl]-5-[(3-methoxyphenyl)sulfonyl]-2-(trifluoromethyl)benzenesulfonamide], on SFRP-1 [1], the EC50 was found to be 453 nM and the fold induction at 10 µM amounted to 5. The same compound displayed an IC50 at SFRP-1 [2] of 300 nM.

Consider `COc1cccc(S(=O)(=O)c2ccc(C(F)(F)F)c(S(=O)(=O)NCCc3cccnc3)c2)c1` [Example 747, 5-[(3-methoxyphenyl)sulfonyl]-N-(2-pyridin-3-ylethyl)-2-(trifluoromethyl)benzenesulfonamide], for which, on SFRP-1 [1], the EC50 was found to be 779 nM and the fold induction at 10 µM was found to be 5.7. The same compound showed a 50% inhibitory concentration (IC50) at SFRP-1 [2] of 90 nM.
